Results published in article PMC3747596 (PLoS ONE, 2013).
Read-outs that look alike come from different tables or passages of the source.

What was measured:
mice = conditions: cited from earlier work
[1] = Caco-2 cell monolayer permeation; conditions: human, Caco-2, pH 7.4
μ opioid receptor = target: T1, μ opioid receptor (Homo sapiens, UniProt P35372); test: Radioligand displacement, μ; type: binding; conditions: binding curve File S1, Mu Opiod Receptor, [3H]DAMGO (0.3 nM), Standard Binding Buffer, read-out: Ki
T1 construct: expressed in transfected cells
T1 sequence (P35372 whole entry): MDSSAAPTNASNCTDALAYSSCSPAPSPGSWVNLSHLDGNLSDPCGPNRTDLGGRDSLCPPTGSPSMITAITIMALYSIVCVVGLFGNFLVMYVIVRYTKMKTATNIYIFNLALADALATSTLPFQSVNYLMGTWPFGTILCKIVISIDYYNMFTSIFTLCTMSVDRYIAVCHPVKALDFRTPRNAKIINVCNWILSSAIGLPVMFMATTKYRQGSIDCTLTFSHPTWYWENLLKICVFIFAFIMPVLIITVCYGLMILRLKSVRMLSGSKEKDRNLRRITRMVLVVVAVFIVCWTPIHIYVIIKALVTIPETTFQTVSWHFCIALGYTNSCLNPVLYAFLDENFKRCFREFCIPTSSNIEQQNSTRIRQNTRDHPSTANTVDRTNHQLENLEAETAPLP

Compound: NCc1ccc2[nH]c3c(c2c1)CC1(O)C2Cc4ccc(O)c5c4C1(CCN2CC1CC1)C3O5 (stereo not shown) [5′-aminomethylnaltrindole]
- toxic signs (mice; 20 mg/kg i.p.): gasping and convulsions

Compound: O=C1CC[C@@]2(O)[C@H]3Cc4ccc(O)c5c4[C@@]2(CCN3CC2CC2)[C@H]1O5 [Naltrexone]
- LD50 (mice; mice, s.c.): 570 mg/kg
- Papp A→B at 120 min [1]: 59 ×10⁻⁶ cm/s
- Papp B→A at 120 min [1]: 270 ×10⁻⁶ cm/s
- efflux ratio at 120 min [1]: 5.7

Compound: DAM80: reference ligand of the mu opioid binding curve
- Ki (μ opioid receptor; listed as DAM30): 0.41 nM
- Ki (μ opioid receptor): 0.54 nM
